Experimental data reported in patent US20090143434A1 (priority 2007, published 2009).

What was measured:
hNav1.3 = biological target: T1, hNav1.3 (Homo sapiens, UniProt Q9NY46); experiment: voltage clamp currents in mammalian cells stably transfected with cloned ion channel cDNA, hNav1.3; assay type: cell-based
T1 construct: expressed in transfected cells
From the text: (§1) Nonlinear least squares fits of the current ratio data yielded the best fit value for the IC50 concentration. A positive control was included for each channel tested in the study.

hKv1.3 = hKv1.3 (Homo sapiens, UniProt P22001); experiment: voltage clamp currents in mammalian cells stably transfected with cloned ion channel cDNA, hKv1.3; assay type: cell-based
From the text: as §1

hHCN4 = biological target: T2, hHCN4 (Homo sapiens, UniProt Q9Y3Q4); experiment: voltage clamp currents in mammalian cells stably transfected with cloned ion channel cDNA, hHCN4; assay type: cell-based
T2 construct: expressed in transfected cells
T2 sequence (Q9Y3Q4 1-1203): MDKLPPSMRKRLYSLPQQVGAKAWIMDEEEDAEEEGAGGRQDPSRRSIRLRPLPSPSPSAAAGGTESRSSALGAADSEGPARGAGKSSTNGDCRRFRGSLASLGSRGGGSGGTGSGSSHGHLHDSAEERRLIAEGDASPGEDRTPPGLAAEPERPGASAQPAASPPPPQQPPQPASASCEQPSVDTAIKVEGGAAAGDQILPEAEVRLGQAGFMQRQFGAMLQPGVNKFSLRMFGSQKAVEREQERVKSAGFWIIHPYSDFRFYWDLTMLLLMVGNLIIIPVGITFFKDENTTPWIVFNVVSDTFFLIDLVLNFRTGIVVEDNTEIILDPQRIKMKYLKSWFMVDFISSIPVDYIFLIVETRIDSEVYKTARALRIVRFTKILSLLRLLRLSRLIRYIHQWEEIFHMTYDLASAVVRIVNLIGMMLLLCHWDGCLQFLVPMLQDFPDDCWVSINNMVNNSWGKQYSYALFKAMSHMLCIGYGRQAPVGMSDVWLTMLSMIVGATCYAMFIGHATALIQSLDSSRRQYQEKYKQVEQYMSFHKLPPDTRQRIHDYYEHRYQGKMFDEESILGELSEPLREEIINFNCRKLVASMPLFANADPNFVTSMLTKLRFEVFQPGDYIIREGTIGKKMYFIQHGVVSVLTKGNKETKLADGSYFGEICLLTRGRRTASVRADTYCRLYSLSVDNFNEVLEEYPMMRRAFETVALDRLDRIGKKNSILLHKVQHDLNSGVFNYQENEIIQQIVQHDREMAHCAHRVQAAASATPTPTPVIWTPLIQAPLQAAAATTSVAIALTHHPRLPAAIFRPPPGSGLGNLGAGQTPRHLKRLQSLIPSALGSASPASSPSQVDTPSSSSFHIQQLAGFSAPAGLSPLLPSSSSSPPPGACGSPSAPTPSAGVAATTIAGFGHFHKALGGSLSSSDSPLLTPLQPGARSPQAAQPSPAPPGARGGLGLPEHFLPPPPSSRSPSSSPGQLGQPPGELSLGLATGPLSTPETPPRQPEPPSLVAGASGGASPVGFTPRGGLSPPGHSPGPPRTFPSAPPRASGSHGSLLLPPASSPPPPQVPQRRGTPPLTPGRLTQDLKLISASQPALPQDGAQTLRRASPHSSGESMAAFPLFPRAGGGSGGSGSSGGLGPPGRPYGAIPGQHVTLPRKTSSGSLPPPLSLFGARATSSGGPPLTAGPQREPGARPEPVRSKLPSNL
From the text: as §1

hNav1.5 = hNav1.5 (Homo sapiens, UniProt Q14524); experiment: voltage clamp currents in mammalian cells stably transfected with cloned ion channel cDNA, hNav1.5; assay type: cell-based
From the text: as §1

hKv1.1 = biological target: T3, hKv1.1 (Homo sapiens, UniProt Q09470); experiment: voltage clamp currents in mammalian cells stably transfected with cloned ion channel cDNA, hKv1.1; assay type: cell-based
T3 construct: expressed in transfected cells
From the text: as §1

hKv4.3 = biological target: T4, hKv4.3 (Homo sapiens, UniProt Q9UK17); experiment: voltage clamp currents in mammalian cells stably transfected with cloned ion channel cDNA, hKv4.3; assay type: cell-based
T4 construct: expressed in transfected cells
T4 sequence (Q9UK17 1-655): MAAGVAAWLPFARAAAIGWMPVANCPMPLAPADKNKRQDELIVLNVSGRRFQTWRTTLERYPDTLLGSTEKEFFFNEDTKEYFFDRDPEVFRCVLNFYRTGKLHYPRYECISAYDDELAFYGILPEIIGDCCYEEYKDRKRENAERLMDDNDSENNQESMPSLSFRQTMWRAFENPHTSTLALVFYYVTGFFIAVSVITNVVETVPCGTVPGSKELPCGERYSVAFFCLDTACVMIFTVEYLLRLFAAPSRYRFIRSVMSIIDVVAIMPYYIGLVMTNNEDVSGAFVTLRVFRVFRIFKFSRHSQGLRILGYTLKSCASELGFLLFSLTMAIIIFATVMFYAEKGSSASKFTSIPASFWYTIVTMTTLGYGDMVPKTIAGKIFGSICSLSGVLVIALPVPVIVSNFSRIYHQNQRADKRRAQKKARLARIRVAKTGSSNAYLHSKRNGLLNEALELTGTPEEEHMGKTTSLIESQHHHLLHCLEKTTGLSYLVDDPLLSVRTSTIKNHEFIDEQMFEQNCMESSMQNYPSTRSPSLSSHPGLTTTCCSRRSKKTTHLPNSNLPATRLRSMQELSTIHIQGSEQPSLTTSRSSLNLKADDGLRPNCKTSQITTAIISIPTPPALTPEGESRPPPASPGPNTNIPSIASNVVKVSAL
From the text: as §1

hCav1.2 = hCav1.2 (Homo sapiens, UniProt Q13936); experiment: voltage clamp currents in mammalian cells stably transfected with cloned ion channel cDNA, hCav1.2; assay type: cell-based
From the text: as §1

hCav3.2 = hCav3.2 (Homo sapiens, UniProt O95180); experiment: cell-based
From the text: as §1

hERG = biological target: T5, hERG (Homo sapiens, UniProt Q12809); experiment: voltage clamp currents in mammalian cells stably transfected with cloned ion channel cDNA, hERG; assay type: cell-based
T5 construct: expressed in transfected cells
From the text: as §1

[1] = 0.1 Hz, read-out: Estimated IC50 at 0.1 Hz

T5 sequence (Q12809 whole entry): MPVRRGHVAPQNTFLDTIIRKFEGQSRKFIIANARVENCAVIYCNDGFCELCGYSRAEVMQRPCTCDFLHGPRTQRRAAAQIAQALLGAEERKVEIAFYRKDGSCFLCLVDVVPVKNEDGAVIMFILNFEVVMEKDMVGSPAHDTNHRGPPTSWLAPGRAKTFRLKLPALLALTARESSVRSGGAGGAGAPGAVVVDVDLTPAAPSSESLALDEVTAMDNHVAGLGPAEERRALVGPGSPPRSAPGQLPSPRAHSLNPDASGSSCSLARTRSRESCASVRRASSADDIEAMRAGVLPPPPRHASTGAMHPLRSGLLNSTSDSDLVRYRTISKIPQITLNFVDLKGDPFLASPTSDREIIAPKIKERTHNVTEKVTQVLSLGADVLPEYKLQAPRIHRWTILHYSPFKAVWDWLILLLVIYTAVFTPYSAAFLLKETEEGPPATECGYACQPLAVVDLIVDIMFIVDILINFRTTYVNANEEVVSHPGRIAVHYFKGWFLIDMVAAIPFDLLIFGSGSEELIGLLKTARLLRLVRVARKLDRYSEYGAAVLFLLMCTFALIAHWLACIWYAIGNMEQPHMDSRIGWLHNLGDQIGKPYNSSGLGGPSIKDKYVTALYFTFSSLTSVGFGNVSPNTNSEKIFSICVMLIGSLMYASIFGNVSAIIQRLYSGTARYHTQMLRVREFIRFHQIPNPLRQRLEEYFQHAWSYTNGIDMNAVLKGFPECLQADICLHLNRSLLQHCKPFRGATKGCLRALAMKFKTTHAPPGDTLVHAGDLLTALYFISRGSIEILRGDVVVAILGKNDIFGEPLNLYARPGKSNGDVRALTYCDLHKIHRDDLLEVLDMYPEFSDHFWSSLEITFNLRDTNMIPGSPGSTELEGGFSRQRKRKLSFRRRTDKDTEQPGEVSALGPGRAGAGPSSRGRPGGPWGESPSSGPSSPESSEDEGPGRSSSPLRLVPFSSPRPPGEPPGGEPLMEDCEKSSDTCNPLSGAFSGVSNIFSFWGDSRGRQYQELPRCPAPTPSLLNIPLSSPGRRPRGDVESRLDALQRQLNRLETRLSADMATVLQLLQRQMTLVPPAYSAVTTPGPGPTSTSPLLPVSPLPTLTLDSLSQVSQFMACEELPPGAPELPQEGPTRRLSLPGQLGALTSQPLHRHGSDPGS
hCav3.2, sequence (O95180 whole entry): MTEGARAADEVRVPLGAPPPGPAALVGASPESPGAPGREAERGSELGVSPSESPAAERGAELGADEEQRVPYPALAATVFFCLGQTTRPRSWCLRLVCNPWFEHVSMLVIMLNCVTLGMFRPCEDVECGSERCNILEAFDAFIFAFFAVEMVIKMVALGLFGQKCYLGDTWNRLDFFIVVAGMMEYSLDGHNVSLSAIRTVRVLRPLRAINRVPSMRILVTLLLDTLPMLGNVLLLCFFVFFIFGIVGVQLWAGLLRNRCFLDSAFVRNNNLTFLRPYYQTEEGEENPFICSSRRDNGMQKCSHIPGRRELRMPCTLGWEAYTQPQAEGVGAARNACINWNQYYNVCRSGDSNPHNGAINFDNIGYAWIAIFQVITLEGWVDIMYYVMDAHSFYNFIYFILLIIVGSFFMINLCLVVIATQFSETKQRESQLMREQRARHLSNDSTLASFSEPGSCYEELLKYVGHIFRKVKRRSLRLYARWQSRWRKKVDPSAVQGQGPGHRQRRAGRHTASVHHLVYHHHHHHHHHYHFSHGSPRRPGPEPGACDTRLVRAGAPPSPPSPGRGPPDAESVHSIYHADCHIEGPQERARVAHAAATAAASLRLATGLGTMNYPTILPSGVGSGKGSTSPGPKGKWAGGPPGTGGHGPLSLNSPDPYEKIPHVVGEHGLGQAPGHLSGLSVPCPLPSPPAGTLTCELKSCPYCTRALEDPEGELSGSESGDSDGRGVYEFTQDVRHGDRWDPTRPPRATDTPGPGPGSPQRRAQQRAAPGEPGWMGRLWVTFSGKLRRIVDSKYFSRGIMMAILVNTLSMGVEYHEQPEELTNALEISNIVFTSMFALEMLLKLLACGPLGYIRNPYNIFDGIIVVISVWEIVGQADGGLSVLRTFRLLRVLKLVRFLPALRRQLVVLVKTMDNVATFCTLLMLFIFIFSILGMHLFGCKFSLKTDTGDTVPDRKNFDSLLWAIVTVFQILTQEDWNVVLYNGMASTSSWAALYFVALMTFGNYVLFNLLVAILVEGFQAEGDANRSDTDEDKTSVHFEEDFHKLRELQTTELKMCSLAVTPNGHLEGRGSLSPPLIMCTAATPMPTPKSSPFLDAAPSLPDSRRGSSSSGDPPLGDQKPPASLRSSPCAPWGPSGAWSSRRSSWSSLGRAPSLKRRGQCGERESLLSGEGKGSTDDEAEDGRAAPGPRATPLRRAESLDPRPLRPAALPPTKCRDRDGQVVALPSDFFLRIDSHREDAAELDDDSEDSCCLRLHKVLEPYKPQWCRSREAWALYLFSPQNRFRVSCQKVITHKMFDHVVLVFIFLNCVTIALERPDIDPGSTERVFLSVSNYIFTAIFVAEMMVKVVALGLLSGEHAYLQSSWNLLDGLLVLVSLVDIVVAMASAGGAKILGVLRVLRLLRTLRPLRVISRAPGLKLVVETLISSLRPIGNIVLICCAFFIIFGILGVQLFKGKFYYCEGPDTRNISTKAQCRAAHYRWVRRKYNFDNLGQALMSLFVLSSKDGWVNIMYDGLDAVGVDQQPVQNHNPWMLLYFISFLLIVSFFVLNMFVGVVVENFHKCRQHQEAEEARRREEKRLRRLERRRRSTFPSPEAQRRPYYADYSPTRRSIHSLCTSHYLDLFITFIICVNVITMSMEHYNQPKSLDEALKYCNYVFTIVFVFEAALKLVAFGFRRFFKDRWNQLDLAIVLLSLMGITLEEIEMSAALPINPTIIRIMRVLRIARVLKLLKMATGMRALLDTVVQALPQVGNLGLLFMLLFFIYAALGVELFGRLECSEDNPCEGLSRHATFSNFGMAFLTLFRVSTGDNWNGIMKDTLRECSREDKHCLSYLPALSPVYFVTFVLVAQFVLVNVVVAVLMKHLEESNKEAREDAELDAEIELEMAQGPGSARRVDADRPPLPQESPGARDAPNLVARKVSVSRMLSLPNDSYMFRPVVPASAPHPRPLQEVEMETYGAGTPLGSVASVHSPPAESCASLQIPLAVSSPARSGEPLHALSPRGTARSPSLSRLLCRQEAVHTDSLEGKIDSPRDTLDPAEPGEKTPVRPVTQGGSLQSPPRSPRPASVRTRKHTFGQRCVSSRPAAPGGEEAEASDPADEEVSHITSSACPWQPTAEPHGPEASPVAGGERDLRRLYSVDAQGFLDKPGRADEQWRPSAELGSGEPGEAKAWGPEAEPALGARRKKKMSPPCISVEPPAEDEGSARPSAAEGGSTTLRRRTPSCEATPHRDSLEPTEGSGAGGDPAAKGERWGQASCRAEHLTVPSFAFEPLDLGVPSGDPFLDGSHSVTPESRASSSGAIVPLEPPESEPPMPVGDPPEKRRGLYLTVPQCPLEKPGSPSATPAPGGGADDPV
T3 sequence (Q09470 whole entry): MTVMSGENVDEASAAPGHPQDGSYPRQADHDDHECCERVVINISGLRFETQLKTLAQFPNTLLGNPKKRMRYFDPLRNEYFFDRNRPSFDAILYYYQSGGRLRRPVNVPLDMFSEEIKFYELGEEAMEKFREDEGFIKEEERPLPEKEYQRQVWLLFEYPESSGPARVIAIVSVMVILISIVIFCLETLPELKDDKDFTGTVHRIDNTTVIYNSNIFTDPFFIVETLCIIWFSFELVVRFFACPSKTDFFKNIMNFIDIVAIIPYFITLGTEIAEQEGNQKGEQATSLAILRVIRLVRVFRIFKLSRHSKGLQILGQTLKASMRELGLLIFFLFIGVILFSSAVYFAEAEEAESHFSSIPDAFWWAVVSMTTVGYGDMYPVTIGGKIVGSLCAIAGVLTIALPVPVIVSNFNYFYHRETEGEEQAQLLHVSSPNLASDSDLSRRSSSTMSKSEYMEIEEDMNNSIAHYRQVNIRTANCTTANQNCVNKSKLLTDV
hKv1.3, sequence (P22001 whole entry): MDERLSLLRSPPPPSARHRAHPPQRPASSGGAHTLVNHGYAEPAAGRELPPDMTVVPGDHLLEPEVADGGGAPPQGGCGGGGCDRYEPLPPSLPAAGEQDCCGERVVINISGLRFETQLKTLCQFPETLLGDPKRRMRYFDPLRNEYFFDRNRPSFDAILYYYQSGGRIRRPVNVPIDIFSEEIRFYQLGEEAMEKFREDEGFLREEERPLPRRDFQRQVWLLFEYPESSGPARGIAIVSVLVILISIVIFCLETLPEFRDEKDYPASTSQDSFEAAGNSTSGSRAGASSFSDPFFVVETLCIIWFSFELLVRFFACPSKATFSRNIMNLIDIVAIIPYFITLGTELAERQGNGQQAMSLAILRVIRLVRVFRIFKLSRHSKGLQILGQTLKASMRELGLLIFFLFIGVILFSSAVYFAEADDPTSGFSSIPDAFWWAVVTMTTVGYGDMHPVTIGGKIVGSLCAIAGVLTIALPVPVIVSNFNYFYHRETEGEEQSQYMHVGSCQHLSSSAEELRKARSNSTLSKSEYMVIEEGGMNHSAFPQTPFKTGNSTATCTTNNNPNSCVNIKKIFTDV

## O=c1[nH]c2ccccc2n1CCCN1CCC(n2c(=O)[nH]c3cc(Cl)ccc32)CC1 [domperidone, 1,3-dihydro-5-chloro-1-(1-(3-(2,3-dihydro-2-oxo-1H-benzimidazol-1-yl)propyl)-4-piperidinyl)-2H-benzimidazol-2-one]
hNav1.3; 10 μM
  % Block at 10 μM/0.1 Hz: 4.6%
hNav1.3; [1]
  IC50: 207 µM
hKv1.3; 10 μM
  % Block at 10 μM/0.1 Hz: 17.6%
hKv1.3; [1]
  IC50: 46.8 µM
hHCN4; 10 μM
  % Block at 10 μM/0.1 Hz: 20.3%
hHCN4; [1]
  IC50: 30.3 µM
hNav1.5; 1 μM, 3 Hz
  % Block at 1 μM/3 Hz: 23.7%
hNav1.5; 10 μM, 0.1 Hz
  % Block at 10 μM/0.1 Hz: 37.3%
hKv1.1; 10 μM
  % Block at 10 μM/0.1 Hz: 1.9%
hKv1.1; [1]
  IC50: 516 µM
hKv4.3; 10 μM
  % Block at 10 μM/0.1 Hz: 0.5%
hKv4.3; [1]
  IC50: 1990 µM
hCav1.2; 1 μM, 3 Hz
  % Block at 1 μM/3 Hz: 49.6%
hCav1.2; 10 μM, 0.1 Hz
  % Block at 10 μM/0.1 Hz: 9%
hCav3.2; Estimated IC50 at 0.1 Hz, 0.1 Hz
  IC50: 10.2 µM
hCav3.2; Estimated IC50 at 3 Hz, 3 Hz
  IC50: 1.22 µM
hERG; 1 μM, 3 Hz
  % Block at 1 μM/3 Hz: 98.0%
hERG; 10 μM, 0.1 Hz
  % Block at 10 μM/0.1 Hz: 95.5%
